Test results published in article PMC12813973, “Consequences of Peptide Macrocyclization Revealed by Virus-Inspired β‑Hairpin Mimetics” (ACS Chemical Biology, 2025).

Target: T1, STAT3 (Homo sapiens, UniProt P40763)
T1 construct: STAT3: the gene encoding full-length STAT3 was codon optimised for expression in; MBP (pEXP-MBP vector) (cleaved yes); His tag (IMAC capture, removed with the fusion by TEV and reverse IMAC) (cleaved yes); made in house; host or cells: E. coli T7 Express
Test: biochemical
Type: binding
Conditions: for KD: analyte 10 µM (1, 3, 5) or 0.5 µM (4, 6), n.b. – no binding observed
Procedure: In such PPIs, the bulk of the binding energy contribution typically stems from backbone interactions, whereas binding specificity is fine-tuned by side-chain contacts. […] We evaluated the binding kinetics of peptides to full-length STAT3 using GCI.
Grating coupled interferometry (GCI)
GCI experiments were performed on a Creoptix WaveDELTA instrument (Malvern Panalytical). Full-length STAT1 or STAT3 were immobilised on a 4PCH chip (Malvern Panalytical #4PCH-03) to a density 2000-8000 pg/mm2 using EDC/NHS activation followed by amine coupling. Briefly, proteins (500 nM) were applied onto an activated chip in 10 mM MES pH 6.5, 20 mM NaCl, after which the chip surface was passivated with 1M ethanolamine, pH 8.0.
The kinetic measurements were perfor med using 20 mM HEPES pH 7.5, 300 mM NaCl, 0.01% Tween-20, 0.0005% DMSO as running buffer. Peptides were tested at 0.5 or 10 μM concentration using the waveRAPID kinetics experiment with the tight binder or intermediate binder mode, respectively.[4] Sensorgrams were fitted in the waveControl software (Malven Panalytical) using the 1:1 kinetic model. […]
GCI sensorgrams depicting RAPID kinetics measurements and fitted kinetic models for peptide binding to full-length STAT3 immobilised on a polycarboxylate hydrogel chip (4PCH). Peptides were applied at 0.5 or 10 μM concentration using the medium or tight binders pulse sequence. The peptides that show negligible Rmax values at 10 μM analyte concentration were classified as non-binding.
(1 picture or pasted object on this page, not shown here)

T1 sequence (P40763 whole entry, species assumed, the tested form may be a part): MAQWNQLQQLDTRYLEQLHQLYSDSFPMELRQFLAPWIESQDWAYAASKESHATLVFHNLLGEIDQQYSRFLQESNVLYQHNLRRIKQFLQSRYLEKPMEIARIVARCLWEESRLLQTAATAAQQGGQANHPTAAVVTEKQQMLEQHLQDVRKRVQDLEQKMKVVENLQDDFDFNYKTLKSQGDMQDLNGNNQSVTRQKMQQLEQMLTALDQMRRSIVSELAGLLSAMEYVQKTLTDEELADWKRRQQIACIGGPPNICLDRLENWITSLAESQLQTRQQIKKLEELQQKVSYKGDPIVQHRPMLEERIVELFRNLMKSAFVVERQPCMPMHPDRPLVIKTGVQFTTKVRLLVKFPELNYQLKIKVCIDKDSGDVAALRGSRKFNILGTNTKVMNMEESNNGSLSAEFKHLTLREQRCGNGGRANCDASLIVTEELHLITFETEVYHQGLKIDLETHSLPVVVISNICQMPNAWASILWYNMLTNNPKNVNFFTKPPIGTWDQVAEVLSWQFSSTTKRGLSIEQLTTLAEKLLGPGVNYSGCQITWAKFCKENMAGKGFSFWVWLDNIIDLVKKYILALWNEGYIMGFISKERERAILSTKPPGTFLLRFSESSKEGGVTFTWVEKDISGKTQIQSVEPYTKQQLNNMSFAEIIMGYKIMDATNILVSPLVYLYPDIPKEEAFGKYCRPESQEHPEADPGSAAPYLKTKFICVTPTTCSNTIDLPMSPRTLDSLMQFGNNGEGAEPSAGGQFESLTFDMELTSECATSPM

Q: Which results are given for `CC[C@H](C)[C@H](NC(=O)[C@H](Cc1ccccc1)NC(=O)[C@@H](NC(=O)[C@H](CO)NC(=O)[C@H](Cc1c[nH]c2ccccc12)NC(=O)[C@H](CCSC)NC(C)=O)C(C)C)C(=O)N[C@@H](Cc1c[nH]cn1)C(=O)NCC(=O)N[C@@H](Cc1c[nH]cn1)C(=O)N[C@@H](CC(=O)O)C(=O)NCC(=O)N[C@@H](CO)C(=O)N[C@@H](CC(N)=O)C(=O)N[C@@H](CCCCN)C(=O)NCC(=O)N[C@@H](CO)C(=O)N[C@@H](CCCCN)C(=O)N[C@H](C(=O)N[C@@H](Cc1ccc(O)cc1)C(=O)N[C@H](C(N)=O)[C@@H](C)O)[C@@H](C)O` [Peptide 1]?
A: KD (replicate 1 (first listed run, Table S2)): n.b.; KD (replicate 2 (second listed run, Table S2)): n.b.; STAT3 binding (GCI), in words (full-length STAT3, negligible Rmax at 10 μM classified as non-binding): not detected
